The target in one assay is T1, wild type GPR84 (Homo sapiens, UniProt Q9NQS5).
T1 construct: expressed in transfected cells
The assay is described as follows: pThr263/pThr264 immunoblot of immunoprecipitated GPR84-eYFP. Particulars: 1 μM. Format: cell-based. The method, then: eYFP-linked receptor constructs were immunoprecipitated from 200 μl cell lysates using GFP-Trap® agarose beads (Proteintech) according to manufacturer’s instructions. Immunocomplexes were washed three times in washing buffer, resuspended in 100 μl 2 × SDS-PAGE sample buffer and incubated at 60 °C for 10 min. Following centrifugation at 2500g for 5 min, 20 μl of immunoprecipitated proteins was resolved by SDS-PAGE on 4% to 12% BisTris gels. After separation, the proteins were transferred electrophoretically onto nitrocellulose membrane, which was then blocked using 5% bovine serum albumin (BSA) in Tris-buffered saline (TBS, 50 mM Tris-Cl, 150 mM NaCl, pH 7.6) for 1 h at room temperature on an orbital shaker. The membrane was then incubated with appropriate primary antibody in 5% BSA in TBS supplemented with 0.1% Tween (TBS-T) overnight at 4 °C. Anti-pThr^263/pThr^264 antiserum was diluted 1:2000 and anti-GFP was diluted 1:10,000. Subsequently, the membrane was washed (3 × 10 min with TBS-T) and incubated for 2 h with anti-rabbit secondary antibody diluted 1:10,000 in 5% BSA in TBS-T. After washing (3 × 10 min with TBS-T), proteins were detected using an Odyssey imaging system (Licor) according to the manufacturer’s instructions.

The target in assay [1] is T2, GPR84 W360A (GPR84-Gi2α fusion protein) (Homo sapiens, UniProt Q9NQS5, W360A).
T2 construct: FLAG (N); Gαi2-Cys352Ile (fusion partner) (C); expressed in transfected cells
T2 sequence (Q9NQS5 whole entry W360A, the tested form may be a part): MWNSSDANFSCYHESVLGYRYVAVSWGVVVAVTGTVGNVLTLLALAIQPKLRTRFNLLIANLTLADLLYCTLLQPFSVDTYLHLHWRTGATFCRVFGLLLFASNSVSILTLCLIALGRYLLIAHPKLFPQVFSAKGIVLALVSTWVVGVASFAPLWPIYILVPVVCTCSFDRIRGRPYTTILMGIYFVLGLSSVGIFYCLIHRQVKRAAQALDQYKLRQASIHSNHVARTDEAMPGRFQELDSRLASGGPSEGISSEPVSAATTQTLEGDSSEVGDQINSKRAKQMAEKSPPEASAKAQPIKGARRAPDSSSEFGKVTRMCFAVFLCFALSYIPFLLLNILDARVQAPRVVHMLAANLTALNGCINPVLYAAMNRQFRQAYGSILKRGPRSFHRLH
The assay is described as follows: [35S]GTPγS binding assay. Format: biochemical. As to conditions: [35S]GTPγS; W360A; read-out: Emax ± SEM. The method, then:
(§1) Membranes were generated from Flp-In™ T-REx™ 293 cells following 100 ng/ml doxycycline treatment to induce receptor expression. Cells were washed with ice-cold phosphate-buffered saline (PBS), removed from dishes by scraping and centrifuged at 1,800 x g for 5 min at 4 °C. Pellets were resuspended in TE buffer (10mM Tris-HCl, 0.1 mM EDTA; pH 7.4) containing a protease inhibitor mixture and homogenized with a 5 ml hand-held homogenizer. Samples were centrifuged at 450 x g for 5 min at 4 °C and the supernatant was further centrifuged at 90,000 x g for 45 min at 4 °C. The resulting pellet was resuspended in TE buffer and protein content was assessed using a BCA protein assay kit.
(§2) Prepared membrane protein (3 μg per well) was incubated in assay buffer (20 mM HEPES, 5 mM MgCl2, 160 mM NaCl, 0.05 % fatty-acid-free bovine serum albumin; pH 7.4) containing the indicated ligand concentrations. The reaction was initiated by addition of [^35S]GTPγS (100 nCi per reaction) with 1 μM GDP, and incubated at 30 °C for 60 min. The reaction was terminated by rapid vacuum filtration through GF/C glassfibre filter-bottom 96-well microplates using a UniFilter FilterMate Harvester (PerkinElmer). Unbound radioligand was removed from filters by three washes with ice-cold PBS. Ultima Gold™ XR was added to dried filters, and [^35S]GTPγS binding quantified by liquid scintillation spectroscopy.

Assay [2] deals with T3, GPR84 Y81A (GPR84-Gi2α fusion protein) (Homo sapiens, UniProt Q9NQS5, Y81A).
T3 construct: FLAG (N); Gαi2-Cys352Ile (fusion partner) (C); expressed in transfected cells
T3 sequence (Q9NQS5 whole entry Y81A, the tested form may be a part): as the sequence (Q9NQS5 whole entry W360A, the tested form may be a part) above, with Y81A, A360W counted along it
The assay is described as follows: [35S]GTPγS binding assay. As to conditions: [35S]GTPγS; Y81A; read-out: Emax ± SEM. Format: biochemical. The method, then: as §1, §2

The target in assay [3] is T4, GPR84 R172A (GPR84-Gi2α fusion protein) (Homo sapiens, UniProt Q9NQS5, R172A).
T4 construct: FLAG (N); Gαi2-Cys352Ile (fusion partner) (C); expressed in transfected cells
T4 sequence (Q9NQS5 whole entry R172A, the tested form may be a part): as the sequence (Q9NQS5 whole entry W360A, the tested form may be a part) above, with R172A, A360W counted along it
Put plainly: [35S]GTPγS binding assay. It counts as biochemical. How it is done: as §1, §2

In the next assay the target is T5, GPR84 Y332A (Homo sapiens, UniProt Q9NQS5, Y332A).
T5 construct: FLAG (N); Gαi2-Cys352Ile (fusion partner) (C); expressed in transfected cells
T5 sequence (Q9NQS5 whole entry Y332A, the tested form may be a part): as the sequence (Q9NQS5 whole entry W360A, the tested form may be a part) above, with Y332A, A360W counted along it
The assay is described as follows: [35S]GTPγS binding assay. Format: biochemical. Particulars: [35S]GTPγS; Y332A; read-out: Emax ± SEM. How it is done: as §1, §2

In assay [4] the target is GPR84-WT (GPR84-Gi2α fusion protein) (Homo sapiens, UniProt Q9NQS5). The assay is described as follows: [35S]GTPγS binding assay. It counts as biochemical. Particulars: [35S]GTPγS; GPR84-WT; Extended Data Tables 1 and 5; read-out: Emax ± SEM. How it is done:
as §1, §2

For assay [5], the target named is T6, GPR84 S169A (GPR84-Gi2α fusion protein) (Homo sapiens, UniProt Q9NQS5, S169A).
T6 construct: FLAG (N); Gαi2-Cys352Ile (fusion partner) (C); expressed in transfected cells
T6 sequence (Q9NQS5 whole entry S169A, the tested form may be a part): as the sequence (Q9NQS5 whole entry W360A, the tested form may be a part) above, with S169A, A360W counted along it
Put plainly: [35S]GTPγS binding assay. Format: biochemical. Particulars: [35S]GTPγS; S169A; read-out: Emax ± SEM. How it is done:
as §1, §2

For assay [6], the target named is T7, GPR84 T167A (GPR84-Gi2α fusion protein) (Homo sapiens, UniProt Q9NQS5, T167A).
T7 construct: FLAG (N); Gαi2-Cys352Ile (fusion partner) (C); expressed in transfected cells
T7 sequence (Q9NQS5 whole entry T167A, the tested form may be a part): as the sequence (Q9NQS5 whole entry W360A, the tested form may be a part) above, with T167A, A360W counted along it
The assay is described as follows: [35S]GTPγS binding assay. As to conditions: [35S]GTPγS; T167A; read-out: Emax ± SEM. Format: biochemical. How it is done:
as §1, §2

The target of the next assay is T8, GPR84 N362S (Homo sapiens, UniProt Q9NQS5, N362S).
T8 construct: FLAG (N); Gαi2-Cys352Ile (fusion partner) (C); expressed in transfected cells
T8 sequence (Q9NQS5 whole entry N362S, the tested form may be a part): as the sequence (Q9NQS5 whole entry W360A, the tested form may be a part) above, with A360W, N362S counted along it
The assay is described as follows: [35S]GTPγS binding assay. Format: biochemical. Particulars: [35S]GTPγS; N362S; read-out: Emax ± SEM. The method, then:
as §1, §2

The target in assay [7] is T9, GPR84 Y69A (GPR84-Gi2α fusion protein) (Homo sapiens, UniProt Q9NQS5, Y69A).
T9 construct: FLAG (N); Gαi2-Cys352Ile (fusion partner) (C); expressed in transfected cells
T9 sequence (Q9NQS5 whole entry Y69A, the tested form may be a part): as the sequence (Q9NQS5 whole entry W360A, the tested form may be a part) above, with Y69A, A360W counted along it
The assay is described as follows: [35S]GTPγS binding assay. As to conditions: [35S]GTPγS; Y69A; read-out: Emax ± SEM. Format: biochemical. How it is done: as §1, §2

The target in assay [8] is T10, GPR84 N104A (GPR84-Gi2α fusion protein) (Homo sapiens, UniProt Q9NQS5, N104A).
T10 construct: FLAG (N); Gαi2-Cys352Ile (fusion partner) (C); expressed in transfected cells
T10 sequence (Q9NQS5 whole entry N104A, the tested form may be a part): as the sequence (Q9NQS5 whole entry W360A, the tested form may be a part) above, with N104A, A360W counted along it
Put plainly: [35S]GTPγS binding assay. It counts as biochemical. Particulars: [35S]GTPγS; N104A; read-out: Emax ± SEM. How it is done:
as §1, §2

The target of a further assay is T11, GPR84 Y332F (Homo sapiens, UniProt Q9NQS5, Y332F).
T11 construct: FLAG (N); Gαi2-Cys352Ile (fusion partner) (C); expressed in transfected cells
T11 sequence (Q9NQS5 whole entry Y332F, the tested form may be a part): as the sequence (Q9NQS5 whole entry W360A, the tested form may be a part) above, with Y332F, A360W counted along it
The assay is described as follows: [35S]GTPγS binding assay. It counts as biochemical. As to conditions: [35S]GTPγS; Y332F; read-out: Emax ± SEM. How it is done: as §1, §2

Assay [9] concerns the target T12, GPR84 (Homo sapiens, UniProt Q9NQS5). The assay is described as follows: CHO-K1-based PathHunter β-arrestin-2 recruitment assay. It counts as cell-based. On the set-up: host or cells: CHO-K1. Particulars: for Emax: read-out: β-arrestin-2 %Emax ± SEM; for EC50: wild type GPR84, CHO-K1 PathHunter, read-out: β-arrestin-2 pEC50 ± SEM (converted); for change in efficacy in β-arrestin-2 recruitment: compared to OX04929 (so in the source). The method, then:
Cells were stimulated with test ligands for 90 min. Compounds were prepared at 5× concentration in DPBS containing 0.1% BSA and 0.125% Tween-80 to minimise aggregation. β-arrestin recruitment was quantified using the PathHunter® β-Arrestin Assay (DiscoverX 93-0001) following the manufacturer’s instructions. Luminescence was recorded after 18 h using a PHERAstar® FS plate reader.

For assay [10], the target named is T12, GPR84. Put plainly: CHO-K1-based HitHunter cAMP inhibition assay. Format: cell-based. As to conditions: wild type GPR84; for Emax: normalised to capric acid (100 μM), read-out: cAMP %Emax ± SEM; for EC50: CHO-K1 cells, forskolin 25 μM, read-out: cAMP pEC50 ± SEM (converted). How it is done: CHO-K1 cells stably expressing human GPR84 (DiscoverX 95-0158C2) were seeded in 384-well plates at 15,000 cells per well in 20 μL of F12 medium supplemented with 10% fetal bovine serum (FBS), 19 mM HEPES, and 1% penicillin-streptomycin. After overnight incubation at 37 °C and 5% CO2, the medium was removed and replaced with PBS containing 0.1% BSA. Cells were stimulated for 30 min with forskolin (25 μM) and test compounds prepared in Dulbecco’s PBS (DPBS) with 0.1% BSA. Compounds were dissolved in DMSO and diluted appropriately. cAMP levels were quantified using the HitHunter® cAMP Assay for Small Molecules (DiscoverX 90-0075SM2) according to the manufacturer’s protocol. Luminescence was measured 18 h post-assay using a PHERAstar® FS plate reader (BMG Labtech).

T12 sequence (Q9NQS5 whole entry): as the sequence (Q9NQS5 whole entry W360A, the tested form may be a part) above, with A360W counted along it
T1 sequence (Q9NQS5 whole entry): as the sequence (Q9NQS5 whole entry W360A, the tested form may be a part) above, with A360W counted along it
GPR84-WT (GPR84-Gi2α fusion protein), sequence (Q9NQS5 whole entry, the tested form may be a part): as the sequence (Q9NQS5 whole entry W360A, the tested form may be a part) above, with A360W counted along it
GPR84-WT (GPR84-Gi2α fusion protein), sequence (P04899 with tags, fused parts or gaps C352I partner): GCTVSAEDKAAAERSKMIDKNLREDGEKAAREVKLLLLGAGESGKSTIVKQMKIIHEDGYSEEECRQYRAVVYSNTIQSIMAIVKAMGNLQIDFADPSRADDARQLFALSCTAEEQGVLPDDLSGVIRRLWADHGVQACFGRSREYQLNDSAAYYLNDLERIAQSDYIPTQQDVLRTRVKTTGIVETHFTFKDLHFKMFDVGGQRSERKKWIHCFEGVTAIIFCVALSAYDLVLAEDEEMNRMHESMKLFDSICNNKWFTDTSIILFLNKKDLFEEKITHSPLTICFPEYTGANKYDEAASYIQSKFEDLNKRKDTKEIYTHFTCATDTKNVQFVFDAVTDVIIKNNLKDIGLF

On to `CCCCCCCc1cc(O)c[n+]([O-])c1` [OX04539], for which the “phosphorylation of Thr263 and Thr264 (immunoblot)” value on wild type GPR84 is reported as “promoted phosphorylation”. In addition, the Emax in assay [1] stood at 94 ± 13%; in assay [2], 134 ± 5%; in assay [3], 42 ± 4%; at GPR84 Y332A, 57 ± 10%; in [4], 150 ± 14%; in assay [5], 84 ± 4%. For the same compound, the Emax in assay [6] is 139 ± 7%; at GPR84 N362S it was 196 ± 32%; in assay [7] it was 101 ± 14%; in assay [8], 150 ± 23%; at GPR84 Y332F, 167 ± 2%; on GPR84 [9], 100%. In addition, at GPR84 [10], the Emax was found to be 100 ± 0.8%.

Consider `C#Cc1cc(CCCCc2cc(O)c[n+]([O-])c2)ccc1Cl` [OX04963], for which, at GPR84 [9], the Emax was 15 ± 1.1% and the EC50 was 37.2 nM. Moreover, on GPR84 [10], the EC50 is 0.00646 nM and the Emax is 106 ± 3.8%.

On to `[O-][n+]1cc(O)cc(CCCCc2ccc(Cl)c(F)c2)c1` [OX04958], for which, at GPR84 [9], the maximal response (Emax) was 72 ± 1.3% and the EC50 was 70.8 nM. Also, at GPR84 [10], the EC50 was 0.0407 nM and the Emax stood at 99 ± 0.1%.

`[O-][n+]1cc(O)cc(CCCCc2ccc(Cl)c(Cl)c2)c1` [OX04957]: the values for the Emax at GPR84 [9] and on GPR84 [10] were 46 ± 5.8% and 102 ± 3%, respectively. In addition, the EC50 was 209 nM on GPR84 [9] and 0.0389 nM on GPR84 [10].

As to `[O-][n+]1cc(O)cc(CCCCc2ccc(Cl)c(C3CC3)c2)c1` [OX04965], on GPR84 [9], the “change in efficacy in β-arrestin-2 recruitment” value (from here on “change in efficacy”) is reported as “no significant change” and the Emax was 9 ± 3%. In addition, on GPR84 [10], the EC50 is 0.00398 nM and the Emax was 103 ± 3.7%.

Turning to `CCc1cc(CCCCc2cc(O)c[n+]([O-])c2)ccc1Cl` [OX04961], on GPR84 [9], the “change in efficacy” value is recorded as “no significant change”, the Emax is 21 ± 0.3% and the EC50 was 39.8 nM. In addition, on GPR84 [10], the EC50 was 0.0112 nM and the Emax turned out to be 103 ± 3.6%.

Take `CC1(c2cc(CCCCc3cc(O)c[n+]([O-])c3)ccc2Cl)CC1` [OX04966]: at GPR84 [9], the “change in efficacy” value is reported as “no significant change” and the Emax worked out at 5 ± 1.5%. Moreover, on GPR84 [10], the EC50 is 0.17 nM and the Emax came to 107 ± 5.6%.

Take `Fc1cc(F)c2[nH]cc(Cc3c[nH]c4c(F)cc(F)cc34)c2c1` [PSB-16671, di(5,7-difluoro-1H-indole-3-yl)methane, reference compound]: the Emax at GPR84 Y332A, on GPR84 N362S and on GPR84 Y332F was 100% in each case.

(Values after paper doi:10.1101/2025.07.30.667614, “Steric control of signaling bias in the immunometabolic receptor GPR84” (bioRxiv, 2025).)
